Measured values from a melting point compilation (Tetko et al.; mined from patent text by program, amines drawn as free bases though some values may be those of a salt).

melting point | Compound
204 to 206 °C | COc1cc(N[C@H]2CC[C@H](NCc3ccccc3)CC2)c(Cl)cc1C(N)=O
221 to 222 °C | Cc1ncsc1CCOc1ccc(NC(=O)c2cc(F)cc(N3CCCCC3)c2)c2ccccc12
257 to 258 °C | CN1CCN(c2cc3c(cc2F)C(=O)c2nc4ccccc4c(=O)n2-3)CC1
180 to 182 °C | O=c1cnc(-c2cc(Br)cc(-c3ccsc3)c2)nn1CC(F)(F)F
128 to 130 °C | COc1ccc([N+](=O)[O-])c(C#N)c1C
265 to 266 °C | CCCc1nnc2c(=O)n(C)c3ccc(Cl)cc3n12
204 to 206 °C | NNc1ccnc2c(NC(=O)c3c(Cl)cccc3Cl)cccc12
119 °C | CN(C)c1ccc(-c2cccc(OC3SCC(O)C(O)C3O)c2)cn1 (stereo not given)
101 to 104 °C | CN(C)Cc1ccc(CSCCNC2=NS(=O)(=O)C(C(=O)N(C)C)=C2N)o1
87.5 to 89.5 °C | Clc1ccc(CCC(Cn2ccnc2)OCc2ccc(Cl)c(Cl)c2)cc1 (stereo not given)
167 to 169 °C | N#Cc1c(-c2ccccc2)cc(Cl)nc1Cl
133 to 135 °C | CC(=C(c1ccc(N(C)C)cc1)c1ccc(N(C)C)cc1)P(C(C)(C)C)C(C)(C)C
97 to 99 °C | CC(=O)Oc1ccc(CCC2CC(=O)OC(=O)C2)cc1
186 to 188 °C | Cc1c(C(=O)Nc2ccc(N3CCC(c4ccccc4)CC3)c(C#N)c2)cnn1-c1ccc(Cl)cc1
207 to 208 °C | COc1cc(O)ccc1-c1cnc2cnc(-c3ccc(O)cc3)nc2c1
174 to 176 °C | Cc1ccccc1NC(=O)c1cc(Br)c(OCc2ccccc2)cc1OCc1ccccc1
203 to 231 °C | O=C(Nc1ccc(C(=O)N2Cc3ccccc3Cc3ccccc32)cc1)c1cc(Cl)ccc1Cl
162 to 164 °C | COc1ccc(C2CN(S(=O)(=O)c3ccc(C)cc3)Cc3ccccc32)c(CO)c1OC (stereo not given)
280 to 284 °C | CCCCn1c2c(c3cc(OC)c(OC)cc3c1=O)C(=O)c1cc3c(cc1-2)OCO3
113 to 115 °C | Fc1ccc2c(c1)Cc1sc(NCCCN3CCOCC3)nc1-2
201 to 202 °C | O=c1c(CCCc2ccccn2)cc2cccnc2n1-c1cccc([N+](=O)[O-])c1
232 °C | CC(C)(C)c1cc(C=C2SCN(CC(N)=O)C2=O)cc(C(C)(C)C)c1O

melting point | Compound
80 °C | O=CCC1Cc2ccc(Cl)cc2C1=O (racemic)
121 to 122 °C | CNC(=S)C1(c2cccnc2)CCCCC1=CCOc1ccccc1 (stereo not given)
55 to 57 °C | Cn1nc(N)nc1NCCCOc1cccc(CN2C(=O)c3ccccc3C2=O)c1
201 to 202 °C | COC(=O)NN=C(C)c1nc(-c2ccccc2)[nH]c1C
156 °C | CCOC1=CC(=O)N([C@@H]2c3cc(C#N)ccc3OC(C)(C)[C@H]2OC(C)=O)C1 (relative stereo)
158 to 160 °C | CN1C(=O)c2cc(N)ccc2Oc2ncccc21
132 to 133 °C | CCC(CC(N)=O)c1cccc2nc3n(c12)CCCN3c1ccc(Cl)cc1Cl (stereo not given)
151 °C | COC(=O)C1(C(=O)OC)CN(C(=O)OC(C)(C)C)c2cc([N+](=O)[O-])c3ccccc3c21
253 to 255 °C | O=C1NC(=O)C(=Cc2cccs2)N1
184 to 186 °C | CCCn1cc2c(C3(F)C(=O)Nc4ccc(Br)cc43)ncnc2n1 (stereo not given)
165 to 167 °C | CCOCc1nc2c(N)nc3ccccc3c2n1CC1(O)CCN(C(=O)OCC)CC1
228 °C | CSC[C@H](NCc1cc(Br)ccc1N)C(=O)O
167 to 168 °C | O=C(NCc1cccs1)c1ccc(CN2C(=O)C3(COc4cc5c(cc43)CCO5)c3ccccc32)cc1 (stereo not given)
124 to 125 °C | Oc1ccc(CCCCn2ccnc2)cc1
95 to 97 °C | O=C(Cn1ncc(-c2ccccc2)c1-c1ccccc1)NCCN1CCCCC1
184 to 189 °C | CC(C)C(C)(C(N)=O)N1C(=O)c2ccc3ccn(C)c3c2C1=O (stereo not given)
121 to 122 °C | CCC(CC)n1nc(-c2ccc(O)cc2O)c2cccc(C(F)(F)F)c21
208 °C | O=C(N[C@H]1CC[C@H](CCN2CCN(c3nccc4c3CCO4)CC2)CC1)c1ccccc1
46 to 47 °C | CC(Br)=C(c1ccccc1)c1ccccc1
52 to 54 °C | O=C(CCC(=O)N1CCCCC1)c1ccccc1
101 °C | O=S(Cc1ccccc1)c1ncc(Br)cn1 (stereo not given)
164 to 166 °C | NC1CCC(CC2CCC(Nc3ncc4ncnc(Nc5ccc(F)c(Cl)c5)c4n3)CC2)CC1 (stereo not given)

Further lines, the compound ahead of its results:

Compound | melting point
COC(=O)Nc1nc(-c2ccccc2)c(-c2nc3ccccc3c(=O)n2-c2ccc(Cl)cc2)s1 | > 275 °C
CC[C@H]1[C@H](O)CC(=O)N1c1ccc(C#N)c(Cl)c1 | 118 to 120 °C
CO/C=C(/C(=O)OC)n1cccc1 | 88 to 89 °C
CCOC(=O)c1ccc(CC(=O)NC(CC(C)C)c2ccccc2N2CCCCC2)cc1OCC (stereo not given) | 111 to 112 °C
COc1ccc(CN2CC(C(=O)O)CC2=O)cc1OC (stereo not given) | 176 to 178 °C
CC(C)(C)C(=O)OCn1cnc2ccc(CBr)cc2c1=O | 104 to 114 °C
COc1ccc2ccccc2c1CCN | > 180 °C
CC#CCOc1cc(Oc2ccc(Cl)cc2F)ncn1 | 118 °C
CCCc1nc2c(N)nc3cc(OCCn4cccc4)ccc3c2s1 | 158 to 160 °C
S=C(Nc1ccc(Cl)cc1)NC12CC3CC(CC(C3)C1)C2 | 185 °C
COc1ccc(C2c3ccccc3C(c3ccccc3)C2C(=O)O)cc1 (stereo not given) | 164 to 166 °C
O=C(CCCCCNC(=O)OCc1ccccc1)NCCc1ccc(O)cc1 | 108 °C
CCOC(=O)CSc1nc(C(C)(C)C)n[nH]1 | 93 °C
Cc1cc(C)c(S(=O)(=O)NC(C)CS)c(C)c1 (stereo not given) | 74 to 76 °C
O=C1C2=C(CCCC2)C(=O)N1c1cc(OCC2=CCCSC2)c(Cl)cc1F | 134 to 137 °C
N#CNC(=NC1CCN(Cc2ccccc2)CC1)NC1Cc2ccccc2C1 | 138 to 140 °C
CCCCCCCC(=O)N(C)Cc1cccc(-c2ccc(CCC(=O)O)cc2)c1 | 91 °C
C[C@@H](C(O)=S)c1cc(C(C)(C)C)c(O)c(C(C)(C)C)c1 | 111 to 112 °C
O=Cc1c(O)cc(O)cc1CCl | 164 to 166 °C

Compound | melting point
CC(C)NC(=O)CCC(O)c1ccccc1 (stereo not given) | 131 to 135 °C
CS(=O)(=O)N1CCN([C@@H](CNC(=O)c2ccc(OCc3ccc(C(F)(F)F)cc3)cc2)C(=O)NO)CC1 | 192 °C
CC(=O)NCC[C@@H]1CCc2ccc3nn(C)c(Br)c3c21 | 167 to 169 °C
CCOC(=O)Nc1ccc(OCCCCl)cc1 | 91 to 93 °C
CCCCCCCCCCC=Cc1cnn(C(C(=O)Nc2c(OC)cc(OC)cc2OC)c2ccccc2)c1 (stereo not given) | 82 to 85 °C
CNCC(O)C(Oc1ccc2c(c1)OCO2)c1ccccc1 (stereo not given) | 100 to 122 °C
Cc1cccc(Nc2ncnc3cc(NCCCN(C)C)c(N)cc23)c1 | 60 to 66 °C
CCCCCN1C(=O)C(CO)(c2ccc3c(c2)OCO3)c2ccccc21 (stereo not given) | 110 to 113 °C
CCN1CCN(C(C)C(=O)NC2(c3ccc4occc4c3)C(=O)Nc3cc(Cl)cc(Cl)c32)CC1 (single isomer, unassigned; (+)) | 137 to 138 °C
COCCNC(=O)c1cc(F)cc(-c2cccc3c(F)c(Cc4cccc(C(F)(F)F)c4)sc23)c1 | 109 to 110 °C
CC(=CS(N)(=O)=O)c1ccccc1 | 101 to 102 °C
CC(=O)c1cc(Br)c(OCCCBr)c(Br)c1 | 87 to 88 °C
CNc1cc2c(cc1OC)OCO2 | 66 °C
CCCc1nc(NC(C)=O)nc(N2CCOCC2)n1 | 141 to 142 °C
O=C(O)c1cc2ccc(C3OC(CO)C(O)C(O)C3O)cc2oc1=O (stereo not given) | 250 to 255 °C
O=C(O)c1ccc(CCOCCCCCCBr)s1 | 60 to 61 °C
O=c1oc(/C=C/c2ccccc2)ns1 | 105 to 106 °C
O=C(Nc1ccccc1)C1=C(Nc2ccc(Cl)cc2)COC1=O | 209 to 210 °C
O=C(NOCC(O)CN1CCCCC1)Nc1cccc(Cl)c1 (stereo not given) | 117 to 118 °C

Compound | melting point
FC(F)(F)Oc1cccc(Cn2cnc3c(-c4ccco4)ncnc32)c1 | 133 to 135 °C
Nc1ncc(C#Cc2ccc(Cl)cc2)c(N2CCOCC2)n1 | 193 to 194 °C
Cc1[nH]c(=S)n(Nc2ccccc2)c1-c1ccccc1 | 224 to 226 °C
CCCCc1ncc(C(=O)OCC)c(=O)n1Cc1ccc(-c2ccccc2-c2nc(=O)o[nH]2)cc1 | 151 to 154 °C
CCCN1C(=O)CN=C(c2cccc(C(F)(F)F)c2)c2cc(OC)c(OC)cc21 | 135 to 137 °C
COC(=O)c1ccc(OCCNC(=O)C2Cc3ccccc3N2S(=O)(=O)c2ccc(-c3ccc(F)cc3Cl)cc2)cc1F (stereo not given) | 71 to 76 °C
CC(C)(C)OC(=O)NCC1(Cc2noc(=S)[nH]2)CCCCC1 | 160 to 161 °C
CC(C)(C)OC(=O)CN1C(=O)[C@@H](N[C@@H](CCC2CCCCC2)C(=O)O)COc2ccccc21 | 180 to 183 °C
O=C(Nc1cccc(C(F)(F)F)c1)C(=O)N1CCC(Cc2ccccc2)CC1 | 87 to 89 °C
CN1COC(CC23CCC(c4ccccc42)c2ccccc23)C1 (stereo not given) | 106 to 109 °C
C#CCOc1ccc2c(c1)c(-c1ccc(C(C)C)cc1)nc(=O)n2Cc1cccc(O)c1 | 230 °C
O=C(Nc1ccc(Oc2ncnc3cc4c(cc23)OCCOCCOCCO4)c(F)c1)c1c[nH]cc(-c2ccc(F)cc2)c1=O | 188 to 190 °C
COc1ccccc1COc1ccc(S(=O)(=O)c2ccc(C)nc2Nc2cc(OC)c(OC)cc2Cl)cc1 | 149 to 151 °C
CN[C@@H](C)[C@@H]1CCN(c2c(F)cc3c(=O)[nH]c(=O)n(C4CC4)c3c2OC)C1 | 162 to 164 °C
CCC(CC)(CC(=O)Nc1cccc(SCc2ccc3cc(F)ccc3n2)c1)C(=O)O | 117 to 120 °C
Nc1nc(-c2ccc(CCN3CCN(c4cccc(C(F)(F)F)c4)CC3)cc2)cs1 | 274 to 277 °C
CCC1N=C(c2ccccc2Cl)c2cc(CC(=O)OC)sc2-n2c(C)nnc21 (stereo not given) | 134 to 137 °C
CCOCc1cc2cc(Br)ccc2oc1=Nc1ccc(Cl)cc1 | 144 to 145 °C
